{
  "source": "patent US20080300298A1",
  "about": "“Honokiol Derivates For the Treatment of Proliferative Disorders” (priority 2005, published 2008)",
  "key": {"MM.1S cells": {"test_system": "MM.1S cells", "experiment": "combination with bortezomib", "format": "cell-based, human", "description": "Assessment of HNK-induced cytotoxicity against patient MM cells: Cytotoxicity of HNK against fresh MM cells was determined as previously determined, see, for example, Mitsiades et al Cancer Cell. 2004; 5:221-230. Fresh MNCs separated from bone marrow samples derived from patients with MM were incubated with PE-conjugated anti-CD138 antibody and/or FITC-conjugated anti-CD38 antibody (BD Biosciences, San Diego, Calif.) for 30 minutes on ice and washed, followed by analysis using EPICS XL flow cytometer (Beckman Coulter, Hialeah, Fla.). A CD38^high fraction enriched for MM cells was determined in side and forward scatter panel in each case. The expression of CD138 on gated cells was also evaluated. After HNK-treatment for 48 h, cells were harvested and percentage of CD38^high cells with or without HNK-treatment was evaluated. […] Cells were stained with propidium iodide (PI; 50 μg/mL; Sigma, St Louis, Mo.), and cell cycle profile was determined by using the program M software on an EPICS XL flow cytometer (Beckman Coulter, Hialeah, Fla.). […] Fluorescence intensity of TUNEL and APO 2.7 staining was determined using on EPICS XL flow cytometer. Cytotoxicity was determined by trypan blue exclusion assay. […] Cell growth and induction of apoptosis were determined both by colorimetric assay and now cytometric detection of APO2.7 after 48 h treatment. […] DNA synthesis was measured by [^3H]-thymidine uptake. […]"}, "BT-474 cells": {"test_system": "BT-474 cells", "experiment": "MTT proliferation assay", "format": "cell-based", "conditions": "Homo sapiens, BT-474, 24 h, read-out: concentration that reduced viability by 50% (LC50)", "description": "(§1) Cell lines: All cell lines were obtained from American Type Culture Collection. The breast cancer cell lines used: MCF-7 and BT-474 cells were grown in DMEM medium containing 10% FCS; MDA-MB-231, SK-BR-3, MDA-MB-436 and T47-D cells were grown in RPMI medium containing 10% FCS. The glioblastoma multiforme cell lines (U343 and T98G) were maintained in DMEM modified medium containing 10% FCS.\n(§2) 3-(4,5-dimethylthiazol-2-yl)-2,5-diphenyltetrazolium bromide (MTT) proliferation assays: 3×10^3 cells/well were plated in 96-well plates, cultured in the appropriate culture media containing 10% FCS, and treated with either control vehicle or various concentrations of HNK, alone or with a secondary drug, as indicated. All secondary drugs were freshly diluted in growth media and immediately added to cells along with the HNK. After 24 hours of incubation at 37° C., 5% CO2, the cells were cultured for four hours with 10% MTT reagent (5 mg/ml; Sigma-Aldrich, St. Louis, Mo.). The medium was aspirated, and the cells were dissolved by dimethyl sulfoxide (DMSO). Absorbance of the formazan product was measured by an enzyme-linked immunosorbent assay reader (Macintosh).\n(§3) HNK inhibits growth of breast cancer cells. Breast cancer cells were treated with different concentrations of HNK for 24 hours, and MTT assays were conducted to assess viability. The selected cell lines have different phenotypes and different expression patterns of the estrogen receptor (ER), Her2 and p53, and thus represent various subclasses of breast cancer. […] Similar analyses were also conducted for two glioblastoma multiforme cell lines, U343 and T98G. Over the same dose-range (10-70 μM), both cell lines were resistant to HNK (FIGS. 34 A, B)."}, "SKBR-3 cell": {"test_system": "SKBR-3 cell", "experiment": "MTT proliferation assay", "format": "cell-based", "conditions": "Homo sapiens, SK-BR-3, 24 h, read-out: concentration that reduced viability by 50% (LC50)", "description": "as §1, §2, §3"}, "[1]": {"test_system": "glioblastoma multiforme cell lines, U343 and T98G", "experiment": "MTT proliferation assay", "format": "cell-based", "conditions": "10-70 μM, 24 hours", "description": "as §1, §2, §3"}},
  "data": [
    {"smiles": "C=CCc1ccc(O)c(-c2ccc(O)c(CC=C)c2)c1", "note": "[HNK, Honokiol]", "values": [
      {"measurement": "Bortezomib-induced up-regulation of Hsp27, p-Hsp27 and Hsp70", "setting": "MM.1S cells; 8 h, Western blotting", "result": "significantly blocked"},
      {"measurement": "cytotoxicity and apoptosis of combined treatment with bortezomib", "setting": "MM.1S cells; HNK and bortezomib, 48 h", "result": "enhanced the cytotoxicity and induction of apoptosis compared to each drug alone"},
      {"measurement": "CC50", "setting": "BT-474 cells", "result": 50, "unit": "µM"},
      {"measurement": "CC50", "setting": "SKBR-3 cell", "result": 29, "unit": "µM"},
      {"measurement": "viability of glioblastoma multiforme cell lines", "setting": "[1]", "result": "resistant"}
    ]}
  ]
}
